Measured values as given in ChEMBL document CHEMBL1201862, “PubChem BioAssay data set” (2004).
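Protocol summary: plate cells (96-well), add compound at 5 concentrations, incubate 48 h, interpolate endpoints linearly. GI50 marks 50% less growth.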 Activity calls are given as the source filed them. No stated cut-off is given here; in the data, active = GI50 up to about 1.1 µM and inactive = higher.

What was measured:
Assay in all cases: NCI tumour cell line growth inhibition, 48 h
A549 = system: A549
CAKI-1 = system: CAKI-1
CCRF-CEM = system: CCRF-CEM
COLO 205 = system: COLO 205
HCT-116 = system: HCT-116
HOP-92 = system: HOP-92
HT-29 = system: HT-29
OVCAR-3 = system: OVCAR-3
OVCAR-8 = system: OVCAR-8
RPMI-8226 = system: RPMI-8226
SF-268 = system: SF-268
SF-295 = system: SF-295
SK-MEL-2 = system: SK-MEL-2
SK-MEL-5 = system: SK-MEL-5
SN12C = system: SN12C
SNB-19 = system: SNB-19
SW-620 = system: SW-620
U-251 = system: U-251
UACC-62 = system: UACC-62
UO-31 = system: UO-31

Measured: GI50

Cc1cc(C)c(C2=NO[C@@H]3[C@H]2C(=O)C=C2N(Cc4ccccc4)CCO[C@@]23O)c(C)c1
active: CAKI-1 1 µM
inactive: A549 > 100 µM | CCRF-CEM > 100 µM | COLO 205 > 100 µM | HCT-116 > 100 µM | HOP-92 > 100 µM | HT-29 > 100 µM | OVCAR-3 > 100 µM | OVCAR-8 > 100 µM | RPMI-8226 > 100 µM | SF-268 > 100 µM | SF-295 > 100 µM | SK-MEL-2 > 100 µM | SK-MEL-5 > 100 µM | SN12C > 100 µM | SNB-19 > 100 µM | SW-620 > 100 µM | U-251 > 100 µM | UACC-62 > 100 µM | UO-31 > 100 µM

O=C(Nc1ccc(F)cc1)C(=O)C(C(=O)c1ccccc1F)C1OC(=O)c2ccccc21 (stereo unspecified)
inactive: A549 > 100 µM | CAKI-1 > 100 µM | CCRF-CEM 17.6 µM | COLO 205 48.1 µM | HCT-116 45.8 µM | HOP-92 > 100 µM | HT-29 52.6 µM | OVCAR-8 43 µM | RPMI-8226 23.4 µM | SF-268 50 µM | SF-295 68.5 µM | SK-MEL-2 54.1 µM | SK-MEL-5 > 100 µM | SN12C 51.2 µM | SNB-19 39.4 µM | SW-620 58.6 µM | U-251 24 µM | UACC-62 39.9 µM | UO-31 52.6 µM

CN(C)CCNC(=O)c1ccc(Cl)c2ccc(-c3ccccc3)nc12
inactive: A549 2.92 µM | CAKI-1 2.69 µM | CCRF-CEM 2.16 µM | COLO 205 1.61 µM | HCT-116 1.88 µM | HOP-92 2.02 µM | HT-29 2.77 µM | OVCAR-3 5.4 µM | OVCAR-8 2.57 µM | RPMI-8226 2.51 µM | SF-268 4.45 µM | SF-295 2.96 µM | SK-MEL-2 7.67 µM | SK-MEL-5 1.95 µM | SN12C 3.85 µM | SNB-19 3.06 µM | SW-620 2.19 µM | U-251 2.93 µM | UACC-62 2.69 µM | UO-31 1.77 µM

Clc1ccc(N/N=C(\c2ccccc2)c2ccccn2)nc1
inactive: SK-MEL-2 3.85 µM | SNB-19 1.17 µM
active: A549 0.387 µM | CAKI-1 < 0.01 µM | CCRF-CEM < 0.01 µM | COLO 205 < 0.01 µM | HCT-116 < 0.0148 µM | HOP-92 0.101 µM | HT-29 < 0.01 µM | OVCAR-3 < 0.0121 µM | OVCAR-8 < 0.01 µM | RPMI-8226 0.147 µM | SF-268 0.0258 µM | SF-295 0.323 µM | SK-MEL-5 0.0578 µM | SN12C < 0.01 µM | SW-620 < 0.01 µM | U-251 0.031 µM | UACC-62 0.214 µM | UO-31 0.0494 µM

COCC1N=C(c2cc(OC)c(OC)c(OC)c2-c2cc3c(cc2[C@@H](C)O)OCO3)O[C@H]1c1ccccc1 (stereo partly specified)
inactive: A549 > 57.3 µM | CAKI-1 99.8 µM | CCRF-CEM > 100 µM | COLO 205 > 100 µM | HCT-116 > 100 µM | HOP-92 34.4 µM | HT-29 75.9 µM | OVCAR-3 50 µM | OVCAR-8 > 74.5 µM | RPMI-8226 97.5 µM | SF-268 > 66.2 µM | SF-295 57.7 µM | SK-MEL-2 > 53.3 µM | SK-MEL-5 > 76.7 µM | SN12C 52.1 µM | SNB-19 73.1 µM | SW-620 > 100 µM | U-251 53.2 µM | UACC-62 33.6 µM | UO-31 > 100 µM

CCOCc1cc(=O)c2c(O)cc3c(c2o1)CCC(C)(C)O3
inactive: CAKI-1 > 100 µM | CCRF-CEM > 100 µM | COLO 205 > 100 µM | HOP-92 4.86 µM | HT-29 > 100 µM | OVCAR-3 > 100 µM | OVCAR-8 > 100 µM | RPMI-8226 > 100 µM | SF-268 > 100 µM | SF-295 > 100 µM | SK-MEL-2 > 100 µM | SK-MEL-5 > 100 µM | SN12C > 100 µM | SNB-19 > 100 µM | SW-620 > 100 µM | U-251 > 100 µM | UACC-62 > 100 µM | UO-31 > 100 µM

CCOC(=O)C(Cc1c(-c2[nH]c3ccccc3c2CC(NC(=O)CNC(C)=O)C(=O)OCC)[nH]c2ccccc12)NC(=O)CNC(C)=O (stereo unspecified)
inactive: A549 > 100 µM | CAKI-1 > 100 µM | CCRF-CEM > 100 µM | COLO 205 18.6 µM | HCT-116 > 100 µM | HOP-92 26.3 µM | HT-29 > 100 µM | OVCAR-3 42.3 µM | RPMI-8226 > 100 µM | SF-268 45.5 µM | SF-295 > 100 µM | SK-MEL-2 18.6 µM | SK-MEL-5 29.9 µM | SN12C 56 µM | SNB-19 > 100 µM | SW-620 > 100 µM | U-251 > 100 µM | UACC-62 74.3 µM | UO-31 77.4 µM

NC(CCOCCP(=O)(O)CCOCCC(N)C(=O)O)C(=O)O (stereo unspecified)
inactive: A549 > 100 µM | CAKI-1 > 100 µM | CCRF-CEM > 100 µM | COLO 205 > 100 µM | HCT-116 > 100 µM | HOP-92 > 100 µM | HT-29 > 100 µM | OVCAR-3 > 100 µM | OVCAR-8 > 100 µM | RPMI-8226 > 100 µM | SF-268 > 100 µM | SF-295 > 100 µM | SK-MEL-2 > 100 µM | SK-MEL-5 > 100 µM | SN12C > 100 µM | SNB-19 > 100 µM | SW-620 > 100 µM | U-251 > 100 µM | UACC-62 > 100 µM | UO-31 > 100 µM

COc1cc(S(=O)(=O)Nc2ccc(-c3csc(N4C(=O)C(C)SC4c4cccc(Oc5ccccc5)c4)n3)cc2)ccc1Cl (stereo unspecified)
inactive: A549 > 100 µM | CAKI-1 46 µM | CCRF-CEM 64.7 µM | COLO 205 27.7 µM | HCT-116 34.8 µM | HOP-92 32.7 µM | HT-29 35.4 µM | OVCAR-3 43.6 µM | OVCAR-8 37.5 µM | RPMI-8226 42.1 µM | SF-268 26.7 µM | SF-295 46.2 µM | SK-MEL-2 86.9 µM | SK-MEL-5 27.5 µM | SN12C 70.1 µM | SNB-19 86.9 µM | SW-620 59 µM | UACC-62 28.4 µM | UO-31 64.6 µM

CCOC(=O)c1nc2ccc(OC)cc2c2c1Cc1ccccc1-2
inactive: A549 > 100 µM | CAKI-1 > 100 µM | COLO 205 > 100 µM | HCT-116 8.95 µM | HT-29 > 100 µM | OVCAR-3 > 100 µM | OVCAR-8 > 100 µM | RPMI-8226 > 100 µM | SF-268 > 100 µM | SF-295 > 100 µM | SK-MEL-2 > 100 µM | SK-MEL-5 42.8 µM | SN12C > 100 µM | SNB-19 > 100 µM | SW-620 > 100 µM | U-251 > 100 µM | UACC-62 90.2 µM | UO-31 > 100 µM

COc1cc(C2c3cc4c(cc3[C@@H](Nc3cccc([N+](=O)[O-])c3)C3COC(=O)[C@H]23)OCO4)cc(OC)c1O (stereo partly specified)
active: A549 0.2 µM | CAKI-1 1.03 µM | CCRF-CEM 0.4 µM
inactive: COLO 205 1.35 µM | HCT-116 1.99 µM | HOP-92 2.92 µM | HT-29 2.6 µM | OVCAR-3 5.69 µM | OVCAR-8 2.51 µM | RPMI-8226 3.05 µM | SF-268 2.91 µM | SF-295 1.36 µM | SK-MEL-2 5.4 µM | SK-MEL-5 1.88 µM | SN12C 2.75 µM | SNB-19 2.5 µM | SW-620 2.28 µM | U-251 1.94 µM | UACC-62 2.52 µM | UO-31 2.23 µM

OCC1C2C=CC(O2)[C@H]1CO (stereo partly specified)
inactive: A549 > 100 µM | CAKI-1 > 100 µM | CCRF-CEM 78.7 µM | COLO 205 > 100 µM | HCT-116 > 100 µM | HOP-92 > 100 µM | HT-29 79.6 µM | OVCAR-3 > 100 µM | OVCAR-8 > 100 µM | RPMI-8226 > 100 µM | SF-268 > 100 µM | SF-295 > 100 µM | SK-MEL-5 > 100 µM | SN12C > 100 µM | SNB-19 > 100 µM | SW-620 > 100 µM | U-251 > 100 µM | UACC-62 > 100 µM | UO-31 > 100 µM

CC1CC=CC(O)C1 (stereo unspecified)
inactive: A549 > 100 µM | CCRF-CEM > 100 µM | COLO 205 > 100 µM | HCT-116 > 100 µM | HOP-92 > 100 µM | HT-29 > 100 µM | OVCAR-3 > 100 µM | OVCAR-8 > 100 µM | RPMI-8226 > 100 µM | SF-268 > 100 µM | SF-295 > 100 µM | SK-MEL-2 > 100 µM | SK-MEL-5 > 100 µM | SN12C > 100 µM | SNB-19 > 100 µM | SW-620 > 100 µM | U-251 > 100 µM | UACC-62 > 100 µM | UO-31 > 100 µM
